Counter-ions that a name gives are not always drawn. Peptide text beside a SMILES is read from it. * marks the point of attachment. Tfa = O=C(C(F)(F)F)*
Assay: Compound was evaluated for the potency of sweet taste when sweetness of sucrose is taken as 1 on a weight basis; 15-30
In the case of `N#Cc1ccc(NC(=O)C(N)CC(=O)O)cc1` (centres undefined), the Taste is reported as 15. Work on `N#Cc1ccc(NC(=O)C(N)CCC(=O)O)cc1` (centres undefined) yielded a Taste of 15.

Assay: Compound was evaluated for the potency of sweet taste when sweetness of sucrose is taken as 1 on a weight basis; 150-200
`COC(=O)[C@H](Cc1ccccc1)NC(=O)[C@@H](N)CC(=O)O` showed a Taste of 150. Work on `COC(=O)C(Cc1ccccc1)NC(=O)C(CC(=O)O)NC(=O)C(F)(F)F` (stereo not drawn) (Tfa-Asp-Phe-OMe; configuration not given here) yielded a Taste of 150. Compound `COC(=O)[C@H](Cc1ccccc1)NC(=O)C(N)C(=O)O` (some centres undefined) has a Taste of 150.

Assay: Compound was evaluated for the potency of sweet taste when sweetness of sucrose is taken as 1 on a weight basis; Not sweet
Assay type: functional
With `N#Cc1ccc(NC(=O)CCC(NC(=O)C(F)(F)F)C(=O)O)cc1` (stereo in doubt; 9) the Taste was 0. For `N#Cc1ccc(NC(=O)C(CC(=O)O)NC(=O)C(F)(F)F)cc1` (centres undefined), the Taste was 0. In the case of `N#Cc1ccc(NC(=O)C(CCCC(=O)O)NC(=O)C(F)(F)F)cc1` (centres undefined), the Taste is reported as 0. `COC(=O)[C@H](Cc1ccccc1)NC(=O)[C@@H](N)CCC(=O)O` showed a Taste of 0. With `N#Cc1ccc(NC(=O)C(N)C(=O)O)cc1` (centres undefined) the Taste was 0. Compound `N#Cc1ccc(NC(=O)CCC(NC(=O)C(F)(F)F)C(=O)O)cc1` (stereo in doubt; 11) has a Taste of 0. Work on `N#Cc1ccc(NC(=O)C[C@@H](NC(=O)C(F)(F)F)C(=O)O)cc1` yielded a Taste of 0. Compound `COC(=O)C(Cc1ccccc1)NC(=O)C(CCC(=O)O)NC(=O)C(F)(F)F` (centres undefined) has a Taste of 0. `N#Cc1ccc(NC(=O)CC(NC(=O)C(F)(F)F)C(=O)O)cc1` (centres undefined) gave a Taste of 0. In the case of `N#Cc1ccc(NC(=O)C(NC(=O)C(F)(F)F)C(=O)O)cc1` (centres undefined), the Taste is reported as 0. Work on `COC(=O)C(Cc1ccccc1)NC(=O)C(NC(=O)C(F)(F)F)C(=O)O` (centres undefined) yielded a Taste of 0. Compound `N#Cc1ccc(NC(=O)C(CCC(=O)O)NC(=O)C(F)(F)F)cc1` (centres undefined) has a Taste of 0.

Assay: Compound was evaluated for the potency of sweet taste when sweetness of sucrose is taken as 1 on a weight basis; 2500-3000
In the case of `N#Cc1ccc(NC(=O)C(CCC(=O)O)NC(=O)C(F)(F)F)cc1` (centres undefined), the Taste is reported as 2500. For `N#Cc1ccc(NC(=O)[C@H](CC(=O)O)NC(=O)C(F)(F)F)cc1`, the Taste was 2500.

Reference: ChEMBL document CHEMBL1122038, “Peptide sweeteners. 5. Side-chain homologues relating zwitterionic and trifluoroacetylated amino acid anilide and dipeptide sweeteners” (J Med Chem, 1982)
